Experimental data taken from article PMC8066730, “Alteration of Anticancer and Protein-Binding Properties of Gold(I) Alkynyl by Phenolic Schiff Bases Moieties” (Pharmaceutics, 2021).

How the values were obtained:
[1] = test system: HOP-62 (non-small-cell lung cancer cell line); experiment: SRB cytotoxicity assay, HOP-62; type: cell-based, human; settings: 3 days incubation, DMSO solutions
Experimental: (§1) The cells were obtained by the Egyptian Holding Company for Biological Products and Vaccines (VACSERA) and then maintained in the tissue culture unit. Cells were grown in RPMI-1640 medium, supplemented with 10% heat inactivated FBS, 50 units/mL of penicillin, and […] of streptomycin, and maintained in a humidified atmosphere with 5% carbon dioxide. The cells were kept as monolayer cultures by serial sub-culturing, using cell culture reagents from Lonza (Basel, Switzerland). The antitumor activities of the complexes were assessed against OVCAR-3 (ovarian carcinoma cancer) and HOP-62 (non-small-cell lung cancer) cell lines.
(§2) The sulforhodamine B (SRB) assay method was applied to determine the cytotoxicity, as described in the literature. Exponentially growing cells were collected using 0.25% Trypsin-EDTA and seeded in 96-well plates at 1000–2000 cells/well in RBMI-1640 supplemented medium. The cells were kept in the medium for 24 h and then incubated for 3 days with various concentrations of the gold compounds. Following 3 days of treatment, the cells were fixed with 10% Cl3CCOOH for 60 min at 4 °C. Wells were stained for 10 min at room temperature with 0.4% SRBC dissolved in 1% CH3COOH. The plates were air dried for 24 h, and the dye was dissolved in Tris-HCl for 5 min with shaking at 1600 rpm. The optical density of each well was evaluated spectrophotometrically at 564 nm with an ELISA microplate reader (ChroMate-4300, Orlando, FL, USA). The half […] inhibitory concentration (IC50) values were calculated from a Boltzmann sigmoidal concentration response curve using nonlinear regression fitting models (Graph Pad, Prism Version 9, San Diego, CA, USA).

[2] = test system: OVCAR-3 (ovarian carcinoma cancer cell line); experiment: SRB cytotoxicity assay, OVCAR-3; type: cell-based; settings: for IC50: 3 days incubation, SRB, DMSO solutions
Experimental: as §1, §2

[3] = molecular target: human serum albumin (HSA) (Homo sapiens, UniProt P02768); experiment: HSA fluorescence quenching binding study; parameters: Kq (quenching rate constant): unit not given here; settings: for n (number of binding sites) / Ksv (Stern–Volmer quenching constant) / Kq (quenching rate constant) / ∆G^0 (Gibbs free energy of binding to HSA): 295 K; for Ksv (Stern–Volmer quenching constant): HSA 32 µM, Tris-HCl/NaCl buffer pH 7.4, ca. 20% DMSO; for Kq (quenching rate constant): Ksv = Kq × τ0, τ0 = 7 ns; for ∆G^0 (Gibbs free energy of binding to HSA): calculated from Kb; for fold enhancement in HSA binding affinity on replacing triphenylphosphine with tricyclohexylphosphine: proceeding from 1 to 2 and 3 to 5; for fold increase in HSA binding affinity on introducing the o-phenolic moiety: proceeding from 1 to 3 and 2 to 5
human serum albumin (HSA), sequence (P02768 25-609): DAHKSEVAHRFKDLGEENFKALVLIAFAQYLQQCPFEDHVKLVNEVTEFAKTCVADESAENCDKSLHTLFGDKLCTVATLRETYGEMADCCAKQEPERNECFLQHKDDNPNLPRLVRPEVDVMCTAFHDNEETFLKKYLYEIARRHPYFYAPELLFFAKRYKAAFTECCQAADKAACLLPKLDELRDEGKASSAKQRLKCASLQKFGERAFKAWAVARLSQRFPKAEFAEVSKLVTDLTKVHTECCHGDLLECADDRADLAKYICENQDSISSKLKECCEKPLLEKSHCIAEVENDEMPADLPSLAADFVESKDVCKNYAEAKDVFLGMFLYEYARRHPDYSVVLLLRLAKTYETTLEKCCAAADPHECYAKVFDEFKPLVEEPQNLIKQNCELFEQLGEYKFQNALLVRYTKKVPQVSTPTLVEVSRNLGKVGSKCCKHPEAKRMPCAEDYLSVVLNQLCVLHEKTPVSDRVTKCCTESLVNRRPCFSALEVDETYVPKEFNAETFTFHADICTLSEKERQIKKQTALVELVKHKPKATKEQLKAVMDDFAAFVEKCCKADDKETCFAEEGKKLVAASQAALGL
Experimental: Human serum albumin (HSA) solution (32 µM) was prepared in Tris-HCl/NaCl aqueous buffer (pH = 7.4). The solution was titrated with different concentrations of complexes 1–5 in DMSO (the amount of DMSO was maintained at ca. 20% v/v). The changes in the emission intensity of the protein were followed at around 330 nm upon excitation at 275 nm after incubating the complexes for 4 min at 295 K. The Stern–Volmer quenching constants (KSV) were obtained from Equation (1), where Io and I are the emission intensities of the protein in the absence and the presence of the complexes, respectively. The […]; the KSV value was defined as the slope of the line. The Stern–Volmer constant is related to the quenching constant by Equation (2), where Kq is the quenching rate constant, and τ0 is the average lifetime of the fluorescence for free HSA (τ0 = 7 ns). The binding constant (Kb, M^−1) and the number of binding sites (n) were calculated by plotting log[Io − I/I] against Log [Au complex], where the slope equals n and the intercept is equivalent to Log Kb according to Equation (3). Gibbs free energy (∆G^0) of the binding to HSA protein can be calculated by employing Equation (4), using the binding constant (Kb, M^−1). I0/I = 1 + Ksv [Au complex](1) Ksv = Kq × τ0(2) Log(I0 − I)/I = Log Kb + n Log [Au complex](3) ∆G^0 = −R × T × Ln × Kb(4)

Oc1ccc(N=Cc2ccc(C#[C][Au][PH](c3ccccc3)(c3ccccc3)c3ccccc3)cc2)cc1 [Compound 4, HO–4–C6H4–N=C–4-C6H4-C≡C–Au-PPh3]
IC50 [1]: 8.16 ± 0.43 µM | IC50 [2]: 5.27 ± 0.11 µM | cytotoxic activity against OVCAR-3 in words ([2]; compared with cisplatin): comparable to that of cisplatin | n (number of binding sites) [3]: 1.61 | Ksv (Stern–Volmer quenching constant) [3]: 71.5 ×10^4 | Kq (quenching rate constant) [3]: 102.21 ×10^12 | ∆G^0 (Gibbs free energy of binding to HSA) [3]: -51.8 kJ/mol | HSA binding constant relative to complex 3 (2-hydroxy) ([3]; ratio of Kb, complex 4 vs complex 3): 6400 times

N.N.[Cl][Pt][Cl] [cisplatin, reference compound]
IC50 [1]: 3.91 ± 0.2 µM | IC50 [2]: 5.89 ± 0.12 µM

Au(C≡C-C6H4-4-CHO)(PPh3) [Compound 1]
IC50 [1]: 12.5 ± 0.43 µM | IC50 [2]: 13.7 ± 0.53 µM | n (number of binding sites) [3]: 0.82 | Ksv (Stern–Volmer quenching constant) [3]: 4.7 ×10^4 | Kq (quenching rate constant) [3]: 6.71 ×10^12 | ∆G^0 (Gibbs free energy of binding to HSA) [3]: -21.2 kJ/mol

HO–2–C6H4–N=C–4-C6H4-C≡C–Au-PCy3 [Compound 5]
IC50 [1]: 7.55 ± 0.43 µM | IC50 [2]: 9.11 ± 0.12 µM | n (number of binding sites) [3]: 1.37 | Ksv (Stern–Volmer quenching constant) [3]: 37.1 ×10^4 | Kq (quenching rate constant) [3]: 52.96 ×10^12 | ∆G^0 (Gibbs free energy of binding to HSA) [3]: -42.95 kJ/mol | fold enhancement in HSA binding affinity on replacing triphenylphosphine with tricyclohexylphosphine [3]: 170 fold | fold increase in HSA binding affinity on introducing the o-phenolic moiety [3]: 240 fold

HO–2–C6H4–N=C–4-C6H4-C≡C–Au-PPh3 [Compound 3]
IC50 [1]: 7.25 ± 0.21 µM | IC50 [2]: 9.4 ± 0.17 µM | n (number of binding sites) [3]: 0.96 | Ksv (Stern–Volmer quenching constant) [3]: 38.9 ×10^4 | Kq (quenching rate constant) [3]: 55.57 ×10^12 | ∆G^0 (Gibbs free energy of binding to HSA) [3]: -30.29 kJ/mol | fold increase in HSA binding affinity on introducing the o-phenolic moiety [3]: 40 fold

OHC-4-C6H4-C≡C-Au-PCy3 [Compound 2]
IC50 [1]: 14.82 ± 0.13 µM | IC50 [2]: 15.9 ± 0.53 µM | n (number of binding sites) [3]: 1.16 | Ksv (Stern–Volmer quenching constant) [3]: 2.8 ×10^4 | Kq (quenching rate constant) [3]: 4.00 ×10^12 | ∆G^0 (Gibbs free energy of binding to HSA) [3]: -29.9 kJ/mol | fold enhancement in HSA binding affinity on replacing triphenylphosphine with tricyclohexylphosphine [3]: 30 fold
